Data published in ChEMBL document CHEMBL5247604, “Discovery of novel hybrids containing clioquinol-1-benzyl-1,2,3,6-tetrahydropyridine as multi-target-directed ligands (MTDLs) against Alzheimer's disease” (Eur J Med Chem, 2022).
The source made the active and inactive calls. No cut-off for these calls is given here.

Experiments:
Acetylcholinesterase = Acetylcholinesterase (Electrophorus electricus, UniProt O42275); assay: Inhibition of electric eel AChE using acetylthiocholine iodide as substrate preincubated for 15 mins followed by substrate addition by Ellman's method
Chain of Acetylcholinesterase (O42275 whole entry): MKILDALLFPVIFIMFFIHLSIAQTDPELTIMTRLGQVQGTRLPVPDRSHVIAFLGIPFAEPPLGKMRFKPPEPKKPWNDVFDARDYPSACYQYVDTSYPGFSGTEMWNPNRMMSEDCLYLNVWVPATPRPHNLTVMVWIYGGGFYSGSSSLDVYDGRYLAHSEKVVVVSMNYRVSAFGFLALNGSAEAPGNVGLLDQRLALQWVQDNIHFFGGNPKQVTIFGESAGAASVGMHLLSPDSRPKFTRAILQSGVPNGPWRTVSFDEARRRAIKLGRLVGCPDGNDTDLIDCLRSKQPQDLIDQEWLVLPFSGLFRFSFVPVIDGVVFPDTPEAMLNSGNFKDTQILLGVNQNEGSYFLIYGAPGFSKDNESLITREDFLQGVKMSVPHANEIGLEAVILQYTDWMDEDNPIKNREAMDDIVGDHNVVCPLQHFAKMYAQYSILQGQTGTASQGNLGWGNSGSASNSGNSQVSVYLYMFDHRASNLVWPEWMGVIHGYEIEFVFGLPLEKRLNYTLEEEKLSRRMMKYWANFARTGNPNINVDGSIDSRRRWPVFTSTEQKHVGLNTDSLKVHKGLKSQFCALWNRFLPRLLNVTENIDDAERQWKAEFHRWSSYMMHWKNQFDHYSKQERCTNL

[1] = molecular target: T1, Amyloid-beta precursor protein (Homo sapiens, UniProt P05067); assay: Inhibition of Cu2+ induced amyloid beta (1 to 42 ) (unknown origin) aggregation incubated for 24 hr by Thioflavin T based fluorometric assay
T1 sequence (P05067 whole entry): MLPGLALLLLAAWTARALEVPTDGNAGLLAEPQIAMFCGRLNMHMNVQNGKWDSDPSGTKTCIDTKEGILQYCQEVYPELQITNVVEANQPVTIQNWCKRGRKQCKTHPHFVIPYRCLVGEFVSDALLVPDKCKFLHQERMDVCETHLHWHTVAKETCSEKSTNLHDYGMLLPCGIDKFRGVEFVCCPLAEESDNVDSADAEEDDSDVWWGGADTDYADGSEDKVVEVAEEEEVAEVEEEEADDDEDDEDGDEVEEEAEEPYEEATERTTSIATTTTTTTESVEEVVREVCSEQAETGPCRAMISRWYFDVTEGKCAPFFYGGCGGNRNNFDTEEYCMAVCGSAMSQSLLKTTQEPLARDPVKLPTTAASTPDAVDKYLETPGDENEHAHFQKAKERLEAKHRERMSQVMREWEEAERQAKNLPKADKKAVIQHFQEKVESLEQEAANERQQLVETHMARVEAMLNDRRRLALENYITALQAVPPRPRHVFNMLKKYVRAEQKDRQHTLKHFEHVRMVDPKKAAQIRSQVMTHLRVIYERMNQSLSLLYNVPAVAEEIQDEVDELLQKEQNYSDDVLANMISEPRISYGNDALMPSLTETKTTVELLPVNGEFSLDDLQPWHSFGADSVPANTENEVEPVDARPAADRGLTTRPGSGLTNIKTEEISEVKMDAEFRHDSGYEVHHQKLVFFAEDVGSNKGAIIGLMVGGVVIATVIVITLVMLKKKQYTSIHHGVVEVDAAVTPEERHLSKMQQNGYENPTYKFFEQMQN

[2] = molecular target: T1, Amyloid-beta precursor protein; assay: Inhibition of Cu2+ induced amyloid beta (1 to 42 ) (unknown origin) aggregation assessed as reduction in fibrils incubated for 24 hr by TEM analysis
[3] = molecular target: T1, Amyloid-beta precursor protein; assay: Inhibition of amyloid beta (1 to 42 ) (unknown origin) self aggregation incubated for 24 hr by Thioflavin T based fluorometric assay
SH-SY5Y [4] = assay: Antialzheimer activity in human SH-SY5Y cells assessed as inhibition of GA-induced tau hyperphosphorylation at Ser199 residue incubated for 24 hrs by ELISA; format: functional, cell-based
SH-SY5Y [5] = assay: Antioxidant activity against okadaic acid-induced ROS generation in human SH-SY5Y cells assessed as reduction in DCF fluorescence intensity pretreated for 24 hrs followed by okadaic acid addition for 24 hrs by DCFH-DA dye based fluorescence analysis; format: functional, cell-based
SH-SY5Y [6] = assay: Neuroprotective activity in human SH-SY5Y cells assessed as inhibition of okadaic acid-induced mitochondrial membrane potential by measuring increase in red-to-green fluorescence intensity ratio pretreated for 24 hrs followed by okadaic acid addition for 24 hrs by JC-1 dye based fluorescence analysis; format: functional, cell-based
SH-SY5Y [7] = assay: Antioxidant activity against okadaic acid-induced ROS generation in human SH-SY5Y cells assessed as reduction in DCF fluorescence intensity at 1 to 10 uM pretreated for 24 hrs followed by okadaic acid addition for 24 hrs by DCFH-DA dye based fluorescence analysis; format: functional, cell-based; conditions: dose 1-10 µM
Mus musculus [8] = assay: Antialzheimer activity in human oligo-merized amyloid beta (1 to 42 residues)-induced cognitive impairment C57BL/6 mouse model assessed as decrease IL-1beta level in cortex at 5 mg/kg,ip qd for 10 days by ELISA; format: functional, organism-based; conditions: time 10.0 day
in vivo = conditions: ICR, mouse, po
Description: Acute toxicity in ICR mouse assessed as lethality at 21.30 to 52 mg/kg, po and measured upto 14 days

Mus musculus [9] = assay: Antialzheimer activity in human oligo-merized amyloid beta (1 to 42 residues)-induced cognitive impairment C57BL/6 mouse model assessed as increase duration in novel arm at 5 mg/kg,ip qd for 10 days by Y-maze test relative to control; format: functional, organism-based; conditions: time 10.0 day
SH-SY5Y [10] = assay: Antialzheimer activity in human SH-SY5Y cells assessed as inhibition of GA-induced tau hyperphosphorylation at Ser396 residue incubated for 24 hrs by ELISA; format: functional, cell-based
Mus musculus [11] = assay: Antialzheimer activity in human oligo-merized amyloid beta (1 to 42 residues)-induced cognitive impairment C57BL/6 mouse model assessed as decrease TNF-alpha level in cortex at 5 mg/kg,ip qd for 10 days by ELISA; format: functional, organism-based; conditions: time 10.0 day
SH-SY5Y [12] = assay: Antialzheimer activity in human SH-SY5Y cells assessed as inhibition of GA-induced tau hyperphosphorylation at Ser396 residue at 0.1 to 3 uM incubated for 24 hrs by ELISA; format: functional, cell-based; conditions: dose 0.1-3 µM
Mus musculus [13] = assay: Antialzheimer activity in human oligo-merized amyloid beta (1 to 42 residues)-induced cognitive impairment C57BL/6 mouse model assessed as decrease in escape latency at 5 mg/kg,ip qd for 10 days by Morris water maze test relative to control; format: functional, organism-based; conditions: time 10.0 day
Mus musculus [14] = assay: Antialzheimer activity in human oligo-merized amyloid beta (1 to 42 residues)-induced cognitive impairment C57BL/6 mouse model assessed as increase in percentage of time spent in the target quadrant at 5 mg/kg,ip qd for 10 days by Morris water maze test relative to control; format: functional, organism-based; conditions: time 10.0 day
SH-SY5Y [15] = assay: Antialzheimer activity in human SH-SY5Y cells assessed as inhibition of GA-induced tau hyperphosphorylation at Ser199 residue at 0.1 to 3 uM incubated for 24 hrs by ELISA; format: functional, cell-based; conditions: dose 0.1-3 µM
[16] = Metal chelating activity assessed as Al3+-compound complex formation by measuring blue shift in presence of AlCl3 at 40 uM incubated for 30 mins by UV-Visible spectrophotometry
[17] = Metal chelating activity assessed as Fe3+-compound complex formation by measuring red shift in presence of FeCl3 at 40 uM incubated for 30 mins by UV-Visible spectrophotometry
[18] = Metal chelating activity assessed as Cu2+-compound complex formation by measuring red shift in presence of CuSO4 at 40 uM incubated for 30 mins by UV-Visible spectrophotometry
[19] = Metal chelating activity assessed as Zn2+-compound complex formation by measuring red shift in presence of ZnCl2 at 40 uM incubated for 30 mins by UV-Visible spectrophotometry
[20] = Metal chelating activity assessed as Fe2+-compound complex formation by measuring red shift in presence of FeSO4 at 40 uM incubated for 30 mins by UV-Visible spectrophotometry

Compound | IC50 (Acetylcholinesterase) | other results
Cc1ccc(CN2CC=C(/C=C/c3ccc4cccc(O)c4n3)CC2)cc1 | 0.26 µM | –
Oc1c(Cl)cc(Cl)c2ccc(/C=C/C3=CCN(Cc4ccc(Br)cc4)CC3)nc12 | 0.64 µM | –
Oc1c(Cl)cc(Cl)c2ccc(/C=C/C3=CCN(Cc4ccccc4C(F)(F)F)CC3)nc12 | 0.34 µM | –
Oc1c(Cl)cc(Cl)c2ccc(/C=C/C3=CCN(Cc4ccc(C(F)(F)F)cc4)CC3)nc12 | 0.28 µM | –
Oc1cccc2ccc(/C=C/C3=CCN(Cc4cccc(Cl)c4)CC3)nc12 | 0.75 µM | –
Oc1c(Cl)cc(Cl)c2ccc(/C=C/C3=CCN(Cc4cccc(Cl)c4)CC3)nc12 | 0.33 µM | –
Oc1c(Cl)cc(Cl)c2ccc(/C=C/C3=CCN(Cc4cccc(C(F)(F)F)c4)CC3)nc12 | 0.7 µM | –
Oc1cccc2ccc(/C=C/C3=CCN(Cc4ccccc4Br)CC3)nc12 | 0.49 µM | –
Oc1c(Cl)cc(Cl)c2ccc(/C=C/C3=CCN(Cc4ccccc4)CC3)nc12 | 2.31 µM | –
Cc1ccccc1CN1CC=C(/C=C/c2ccc3c(Cl)cc(Cl)c(O)c3n2)CC1 | 0.56 µM | –
Oc1cccc2ccc(/C=C/C3=CCN(Cc4ccc(Cl)cc4)CC3)nc12 | 3.05 µM | –
Oc1c(Cl)cc(Cl)c2ccc(/C=C/C3=CCN(Cc4cccc(Br)c4)CC3)nc12 | 0.32 µM | –
Oc1c(Cl)cc(Cl)c2ccc(/C=C/C3=CCN(Cc4ccc(F)cc4)CC3)nc12 | 0.27 µM | –
Oc1c(I)cc(Cl)c2cccnc12 | – | inhibition [1]: Active; inhibition [2]: Active; inhibition [3]: inactive
Oc1cccc2ccc(/C=C/C3=CCN(Cc4ccc(C(F)(F)F)cc4)CC3)nc12 | 0.32 µM | –
Oc1cccc2ccc(/C=C/C3=CCN(Cc4ccccc4)CC3)nc12 | 1.11 µM | –
Oc1c(Cl)cc(Cl)c2ccc(/C=C/C3=CCN(Cc4ccccc4Br)CC3)nc12 | 0.54 µM | –

Compound | IC50 (Acetylcholinesterase) | other results
Oc1cccc2ccc(/C=C/C3=CCN(Cc4cccc(Br)c4)CC3)nc12 | 1.53 µM | –
Oc1cccc2ccc(/C=C/C3=CCN(Cc4cccc(C(F)(F)F)c4)CC3)nc12 | 0.55 µM | –
COc1cc2c(cc1OC)C(=O)C(CC1CCN(Cc3ccccc3)CC1)C2 (configuration not stated) [DONEPEZIL] | – | IC50 (SH-SY5Y [4]): 35 µM; IC50 (SH-SY5Y [5]): 202 µM; IC50 (SH-SY5Y [6]): 326 µM; Activity (SH-SY5Y [7]): Active; Activity (Mus musculus [8]): Active; LD50 at 336 h (in vivo): 28.1 mg/kg; Activity (Mus musculus [9]): Active; IC50 (SH-SY5Y [10]): 155 µM; Activity (Mus musculus [11]): Active; Activity (SH-SY5Y [12]): Active; Activity (Mus musculus [13]): Active; Activity (Mus musculus [14]): Active; Activity (SH-SY5Y [15]): Active
Oc1c(Cl)cc(Cl)c2ccc(/C=C/C3=CCN(Cc4ccccc4Cl)CC3)nc12 | 0.41 µM | –
Cc1cccc(CN2CC=C(/C=C/c3ccc4c(Cl)cc(Cl)c(O)c4n3)CC2)c1 | 0.25 µM | Activity [16]: Active; Activity [17]: inactive; Activity [18]: Active; Activity [19]: inactive; Activity [20]: Active
Oc1cccc2ccc(/C=C/C3=CCN(Cc4ccccc4Cl)CC3)nc12 | 1.29 µM | –
Oc1c(Cl)cc(Cl)c2ccc(/C=C/C3=CCN(Cc4ccc(Cl)cc4)CC3)nc12 | 0.62 µM | –
Oc1cccc2ccc(/C=C/C3=CCN(Cc4ccc(Br)cc4)CC3)nc12 | 0.26 µM | –
Oc1cccc2ccc(/C=C/C3=CCN(Cc4cccc(F)c4)CC3)nc12 | 0.72 µM | –
Oc1c(Cl)cc(Cl)c2ccc(/C=C/C3=CCN(Cc4cccc(F)c4)CC3)nc12 | 0.52 µM | –
Cc1cccc(CN2CC=C(/C=C/c3ccc4cccc(O)c4n3)CC2)c1 | 0.43 µM | –
Cc1ccccc1CN1CC=C(/C=C/c2ccc3cccc(O)c3n2)CC1 | 0.4 µM | –
Oc1cccc2ccc(/C=C/C3=CCN(Cc4ccc(F)cc4)CC3)nc12 | 1.66 µM | –
Oc1cccc2ccc(/C=C/C3=CCN(Cc4ccccc4F)CC3)nc12 | 0.57 µM | –
Oc1c(Cl)cc(Cl)c2ccc(/C=C/C3=CCN(Cc4ccccc4F)CC3)nc12 | 0.29 µM | –
Cc1ccc(CN2CC=C(/C=C/c3ccc4c(Cl)cc(Cl)c(O)c4n3)CC2)cc1 | 0.54 µM | –
